From publication PMC7038073, “Substituted Piperazines as Novel Potential Radioprotective Agents” (Molecules, 2020) come the findings set out here.

“And” between values parts separate entries of the source, which are not always exact repeats. Identical values can stand only once. “Also recorded” adds a separate entry of the source. Counter-ions that a name gives are not always drawn.

Broadly, the MTD is the largest dose that counted as tolerated. By viability is commonly meant a read-out of living cells in per cent, often relative to untreated cells.

In data set [1] the test system is BALB/c mice. The experiment in a line: Safe use evaluation in vivo (MTD, symptoms, blood biochemistry, histopathology). Also on record: key to piloerection / ataxia / prostration / tremor / excitation / saber-like tail / stooping / hyper/hypoventilation / drop of eyelids / lacrimation / convulsion: + (mild); ++ (moderate); +++ (severe). The settings on record: for ALT / AST / Amylase / Glucose / Urea / ALP / Creatinine: plasma 48 h after MTD i.p. From the text: (§1) Mild to moderate signs of intoxication could be observed once the MTD (maximum tolerated dose) was reached. In vivo, MTD is described as the highest dose of a given compound that can be administered before showing signs of toxicity (based on the same dose regimen or series) and whose excess would be expected to be fatal, yielding unreliable results. Therefore, a staged approach (including core and intermediate dose levels) has become a suitable strategy in this regard.
(§2) The symptoms described in Tables S1 (in Supplementary Materials) and S2 (in Supplementary Materials) diminished spontaneously within 2 h. After observing these symptoms, MTD thresholds were set at 100, 200, 100, 200, 2000, and 650 mg/kg for compounds 4, 5, 6, 7, 8, and 10, respectively. Animals receiving MTD were further examined by necropsy 48 h after administration. Plasma (reflecting biochemical changes in blood), intestine with mesentery (site of administration), and liver and kidney (elimination organs) were collected to evaluate the toxic potential of the tested compounds. For evaluation of the impact of the compounds on organ function, we performed blood biochemistry test 48 h after administration. The test focused on seven important indicators: glucose and amylase for normal function of pancreas, alanine aminotransferase (ALT), aspartate aminotransferase (AST), and alkaline phosphatase (ALP) for the normal function of liver, and urea and creatinine for the normal function of kidneys. […] According to Thoolen et al., focal necrosis can be occasionally seen in untreated rodents and therefore is not pathognomonic of hepatotoxicity, which is consistent with our findings.
(§3) Both male and female BALB/c mice (Velaz s r.o., Prague, Czech Republic) with an average weight of 21 ± 0.8 g and 21 ± 0.8 g, respectively, were selected for the safe use evaluation in vivo. The mice were housed in environmentally controlled breeding units (Faculty of Military Health Sciences vivarium; temperature 21 ± 1 °C, 12/12 h light/dark cycle) with access to food (Cerea corp., Pardubice, Czech Republic) and water ad libitum. The acclimatization period of the mice was at least 10 days before each experiment. All experimental procedures and protocols were reviewed and approved by the Ethics Committee of the Faculty of Military Health Sciences in Hradec Kralove, University of Defence in Brno. Compounds 2, 3, 4, 5, 6, 7, 8, 9, and 10 were dissolved in physiological saline solution (B. Braun Melsungen AG, Melsungen, Germany) and injected intraperitoneally (i.p.) into the corresponding mouse groups, which were composed of two males and two females. Several doses were administered to determine the maximum tolerated dose (MTD), which was assessed by close observation for signs of toxicity within the first two hours after administration of the compounds, and then regularly over the following 48 h. The observed symptoms were registered according to the laboratory Animal Science Association UK guidelines (for a detailed description, see [36]. After 48 h, the surviving animals were euthanized with CO2 and evaluated by basic macroscopic necropsy. Venous blood was collected into heparinized tubes (Scanlab Systems, Prague, Czech Republic) and the plasma was separated in a U-320R centrifuge (Boeco, Hamburg, Germany) to further evaluate the toxic potential of the tested compounds. The concentrations of glucose, urea, and creatinine and the levels of alanine aminotransferase (ALT), aspartate aminotransferase (AST), alkaline phosphatase (ALP), and amylase were evaluated in a qualified biochemical laboratory of the University Hospital Hradec Kralove (Hradec Kralove, Czech Republic). Additionally, intestine, liver, and kidney samples were collected for histopathologic examination. […]

Assay in data set [2]: as above
More on the design: key to piloerection / ataxia / prostration / tremor / excitation / saber-like tail / stooping / hyper/hypoventilation / drop of eyelids / lacrimation / convulsion: + (mild); ++ (moderate); +++ (severe). The settings on record: both sexes, mouse, in vivo, ip; BALB/c mice, i.p., two males and two females per group; read-out: MTD (maximum tolerated dose).
Source text: as §1, §2, §3

Data set [3] is described as follows: WST-1 cytotoxicity test, MOLT-4. The class given is cell-based. The settings on record: human, MOLT-4 cells, 48 h, WST-1, mean ± SD of three experiments, read-out: relative viability (%) compared to untreated control; for viability at 48 h, 10 µM: MOLT-4, 10 µM; for viability at 48 h, 100 µM: MOLT-4, 100 µM. Here is the method:
In this study, the cytotoxic effects of nine new compounds (2, 3, 4, 5, 6, 7, 8, 9, 10) were tested on 10 human cell lines (nine cancer and one non-cancer cell line). The cell lines were treated with each compound at concentrations of 10 µM and 100 µM for 48 h. The proliferation capacity of the treated cells was determined by WST-1 test and compared against the proliferation rate of the untreated control cells (100%).
The cell lines Jurkat, MOLT-4, A2780, A549, HT-29, PANC-1, HeLa, MCF-7, SAOS-2, and MRC-5 (all purchased from Sigma Aldrich, Czech Republic) were included in this study. All cell lines were maintained according to the provider’s guidelines, and plated and treated in 96-well plates (500 to 30 × 10^3 cells per well). The tested compounds 2, 3, 4, 5, 6, 7, 8, 9, and 10 were dissolved in 0.1% DMSO and kept in 10 mM stock solutions. Before use, the stock solution was diluted in culture media at ratios of 1:100 and 1:1000. The studied cell lines were treated with the compounds 2, 3, 4, 5, 6, 7, 8, 9, and 10 at concentrations of 10 and 100 µM for 48 h. Control cells were tested in culture media with and without DMSO (0.1%). The cells were also treated with 1 µM doxorubicin as a cytotoxicity control.
The WST-1 (2-(4-iodophenyl)-3-(4-nitrophenyl)-5-(2,4-disulfophenyl)-2H-tetrazolium, monosodium salt) test (Roche, Mannheim, Germany) was used according to the manufacturer’s protocol to determine cell viability in all 10 cell lines 48 h after treatment with the tested compounds. The cells were analyzed in a Tecan Infinite M200 spectrometer (Tecan Group, Männedorf, Switzerland) at 440 nm.
Background: Formazan colour is commonly taken as a measure of viable cells.

A short description of data set [4]: Solubility (in words). Format: physicochemical.
Where [5] appears, read: female BALB/c mice, animals 1 and 2.
The mark [6] stands for this setting: female mice, at MTD i.p., animals 1 and 2.
[7] abbreviates: male BALB/c mice, animals 1 and 2.
The mark [8] stands for this setting: male mice, at MTD i.p., animals 1 and 2.

For the molecule `COc1ccc(NCCCN2CCN(CCO)CC2)cc1.Cl.Cl.Cl` [Compound 7, 2-(4-(3-((4-methoxyphenyl)amino)propyl)piperazin-1-yl)ethanol trihydrochloride], in data set [1] (setting [5]), the ALT is 22 U/L and 33 U/L; the AST was 52 U/L and 71 U/L; the Amylase is 2501 U/L and 1496 U/L; the Glucose was 241 mg/dL and 178 mg/dL. Besides, in data set [1] (setting [5]), the Urea worked out at 40 mg/dL. Besides, in data set [1] (setting [6]), the drop of eyelids entry was “+”, the hyper/hypoventilation entry was “++”, the prostration entry is “+” and the tremor entry was “++”. Moreover, in data set [1] (setting [7]), the ALP was 78 U/L and 55 U/L; the ALT is 19 U/L and 29 U/L; the AST was 48 U/L and 66 U/L; the Amylase is 2272 U/L and 1858 U/L. Moreover, in data set [1] (setting [7]), the Creatinine was 23 µg/dL and 34 µg/dL; the Glucose is 244 mg/dL and 194 mg/dL; the Urea is 35 mg/dL and 38 mg/dL. Also, in data set [1] (setting [8]), the drop of eyelids result was “+”, the hyper/hypoventilation result is listed as “++”, the prostration result was “++” and the tremor result was “++”. For the same molecule, in data set [1] (setting [8]), the “weight at 24 h (%)” value was -0.3% and -1.5%; the “weight at 48 h (%)” value was 0.0% and -3.7%. For the same molecule, the maximum tolerated dose (MTD) at 48 h in data set [2] is 200 mg/kg. Further, in data set [3], the viability at 48 h, 10 µM was 93 ± 3% and the viability at 48 h, 100 µM came to 99 ± 3%.

As for `OCCN1CCN(CC(O)CN2CCN(CCO)CC2)CC1` [Compound 8, 1.3-bis [4-(2-hydroxyethyl)piperazin-1-yl)propan-2-ol tetrahydrochloride], in data set [1] (setting [5]), the ALP is 121 U/L and 81 U/L; the ALT was 20 U/L and 23 U/L; the AST was 78 U/L and 67 U/L; the Amylase was 1798 U/L and 2455 U/L. In addition, in data set [1] (setting [5]), the Creatinine was found to be 79 µg/dL; the Glucose was 171 mg/dL and 210 mg/dL; the Urea was 35 mg/dL and 40 mg/dL. Further, in data set [1] (setting [6]), the excitation entry was “+” and the tremor entry was “+”. Besides, in data set [1] (setting [7]), the ALP was 71 U/L and 82 U/L; the ALT was 26 U/L and 22 U/L; the AST was 65 U/L and 56 U/L; the Amylase is 2674 U/L and 2327 U/L. In data set [1] (setting [7]), the Creatinine was 57 µg/dL and 56 µg/dL; the Glucose is 202 mg/dL and 249 mg/dL; the Urea was 41 mg/dL and 37 mg/dL. Further, in data set [1] (setting [8]), the excitation result is on record as “+”, the tremor entry is on record as “+”, the “weight at 24 h (%)” value is -3.8% and the “weight at 48 h (%)” value is -2.9%. In data set [2], the MTD at 48 h came to 2000 mg/kg. In data set [4], the “solubility (in words)” value is on record as “excellently soluble in media”. Besides, in data set [3], the viability at 48 h, 10 µM turned out to be 106 ± 8% and the viability at 48 h, 100 µM stood at 81 ± 6%.

Take `Cl.Cl.OC(CNc1ccccc1)CNc1ccccc1` [Compound 9, 1,3-bis(phenylamino)propan-2-ol dihydrochloride]: in data set [4], the “solubility (in words)” value was “low solubility; also recorded: insufficiently soluble for necessary concentrations”. Also, in data set [3], the viability at 48 h, 10 µM was determined as 103 ± 8% and the viability at 48 h, 100 µM amounted to 71 ± 4%.

Consider `Cl.Cl.Cl.OCCN1CCN(CC(O)CNc2ccccc2)CC1` (stereo not shown) [Compound 10, 1-(phenylamino]-3-[4-(2-hydroxyethyl)piperazin-1-yl)propan-2-ol trihydrochloride], for which, in data set [1] (at MTD i.p., necropsy 48 h after administration, one animal each), the “histopathological change: focal necrosis” value was “five small foci”. In data set [1] (setting [5]), the ALP was 67 U/L and 73 U/L; the ALT is 27 U/L and 24 U/L; the AST is 55 U/L and 56 U/L; the Amylase was 1939 U/L and 1826 U/L. Further, in data set [1] (setting [5]), the Creatinine is 68 µg/dL and 67 µg/dL; the Glucose was 225 mg/dL and 178 mg/dL; the Urea was determined as 38 mg/dL. Further, in data set [1] (setting [6]), the ataxia result is recorded as “+”, the convulsion result was “+”, the excitation result was “+” and the hyper/hypoventilation result is “+”. For the same molecule, in data set [1] (setting [6]), the prostration result is “++”; the tremor result is “+”; the “weight at 24 h (%)” value is -1.5% and -5.6%. For the same molecule, in data set [1] (setting [7]), the ALP was 42 U/L and 61 U/L; the ALT is 24 U/L and 30 U/L; the AST was 58 U/L and 51 U/L; the Amylase is 2212 U/L and 2080 U/L. Further, in data set [1] (setting [7]), the Creatinine is reported as 34 µg/dL; the Glucose is 189 mg/dL and 236 mg/dL; the Urea was 47 mg/dL and 43 mg/dL. Also, in data set [1] (setting [8]), the ataxia entry is recorded as “+”, the excitation result is reported as “+”, the hyper/hypoventilation entry is “+” and the prostration entry is “++”. Besides, in data set [1] (setting [8]), the tremor entry is reported as “+”. The MTD at 48 h in data set [2] was determined as 650 mg/kg. Moreover, in data set [3], the viability at 48 h, 10 µM turned out to be 112 ± 6% and the viability at 48 h, 100 µM came to 100 ± 4%.
